According to US20170066717A1, “NEW PHENYLAZETIDINECARBOXYLATE OR -CARBOXAMIDE COMPOUNDS” (INVENTIVA, priority 2014, published 2017):

Experiments:
NURR-1/RXRα = target: T1, NURR-1/RXRα (Homo sapiens, UniProt P19793); test: Transactivation test, NURR-1-Gal4/RXRα, luciferase reporter in Cos-7 cells; assay type: cell-based; details: for Emax: COS-7, induction level relative to reference XCT0135908 at 2×10^−5 M (=100%), read-out: hNurr1_RXRaFL Emax (%); for EC50: Cos-7 cells, NURR-1-Gal4/RXRα, luciferase reporter, read-out: hNurr1_RXRaFL EC50
T1 construct: expressed in transfected cells; host or cells: Cos-7 cells

NURR-1/RXRγ = target: T2, NURR-1/RXRγ (Homo sapiens, UniProt P48443); test: Transactivation test, NURR-1-Gal4/RXRγ, luciferase reporter in Cos-7 cells; assay type: cell-based; details: for Emax: COS-7, induction level relative to reference XCT0135908 at 2×10^−5 M (=100%), read-out: hNurr1_RXRgFL Emax (%); for EC50: Cos-7 cells, NURR-1-Gal4/RXRγ, luciferase reporter, read-out: hNurr1_RXRgFL EC50
T2 construct: expressed in transfected cells; host or cells: Cos-7 cells
T2 sequence (P48443 whole entry, the tested form may be a part): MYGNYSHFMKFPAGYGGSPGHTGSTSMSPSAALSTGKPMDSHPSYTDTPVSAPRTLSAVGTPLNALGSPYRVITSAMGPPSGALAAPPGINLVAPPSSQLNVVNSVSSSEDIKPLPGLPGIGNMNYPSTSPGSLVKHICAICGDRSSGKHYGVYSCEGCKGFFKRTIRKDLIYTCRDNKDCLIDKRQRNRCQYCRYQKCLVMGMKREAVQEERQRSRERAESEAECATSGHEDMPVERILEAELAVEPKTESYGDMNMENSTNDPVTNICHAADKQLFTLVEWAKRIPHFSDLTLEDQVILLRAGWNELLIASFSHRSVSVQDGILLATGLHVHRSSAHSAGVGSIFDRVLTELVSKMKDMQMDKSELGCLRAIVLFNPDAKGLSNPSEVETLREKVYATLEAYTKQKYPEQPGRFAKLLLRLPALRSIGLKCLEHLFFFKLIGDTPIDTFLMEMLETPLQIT
T2 sequence (P43354 whole entry partner, the tested form may be a part): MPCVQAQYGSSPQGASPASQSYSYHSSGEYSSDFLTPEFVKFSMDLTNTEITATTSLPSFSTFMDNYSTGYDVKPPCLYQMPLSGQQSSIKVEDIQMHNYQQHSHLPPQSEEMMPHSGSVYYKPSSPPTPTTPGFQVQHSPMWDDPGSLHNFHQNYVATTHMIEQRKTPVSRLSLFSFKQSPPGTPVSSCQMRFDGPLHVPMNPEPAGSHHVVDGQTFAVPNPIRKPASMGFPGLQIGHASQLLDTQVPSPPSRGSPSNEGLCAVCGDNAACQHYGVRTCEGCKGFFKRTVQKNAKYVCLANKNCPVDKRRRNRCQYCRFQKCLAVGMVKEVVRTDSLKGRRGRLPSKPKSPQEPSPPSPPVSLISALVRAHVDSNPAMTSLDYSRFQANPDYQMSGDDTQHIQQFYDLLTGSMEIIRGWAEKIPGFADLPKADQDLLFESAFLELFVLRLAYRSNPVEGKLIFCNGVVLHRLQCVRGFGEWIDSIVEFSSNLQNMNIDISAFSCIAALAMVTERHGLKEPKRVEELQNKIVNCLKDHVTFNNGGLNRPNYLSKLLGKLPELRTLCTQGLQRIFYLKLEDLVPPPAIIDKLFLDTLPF
T2 sequence (P04386 1-147 partner limits assumed): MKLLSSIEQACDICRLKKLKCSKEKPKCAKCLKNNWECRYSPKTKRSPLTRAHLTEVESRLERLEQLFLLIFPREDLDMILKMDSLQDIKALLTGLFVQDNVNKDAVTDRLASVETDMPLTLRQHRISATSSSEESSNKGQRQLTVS

T1 sequence (P19793 whole entry, the tested form may be a part): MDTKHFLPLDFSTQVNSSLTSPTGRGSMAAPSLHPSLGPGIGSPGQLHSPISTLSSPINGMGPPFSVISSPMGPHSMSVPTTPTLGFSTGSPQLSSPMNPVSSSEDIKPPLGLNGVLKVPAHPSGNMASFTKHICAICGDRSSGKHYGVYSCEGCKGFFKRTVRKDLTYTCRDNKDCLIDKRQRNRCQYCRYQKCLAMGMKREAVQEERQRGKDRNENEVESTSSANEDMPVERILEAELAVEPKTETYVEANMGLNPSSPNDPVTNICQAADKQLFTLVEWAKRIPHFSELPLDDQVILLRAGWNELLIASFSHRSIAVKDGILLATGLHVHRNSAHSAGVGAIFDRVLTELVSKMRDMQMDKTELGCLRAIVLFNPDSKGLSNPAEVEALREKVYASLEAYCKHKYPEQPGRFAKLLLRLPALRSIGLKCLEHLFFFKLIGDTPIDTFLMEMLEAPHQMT
T1 sequence (P43354 whole entry partner, the tested form may be a part): as the sequence (P43354 whole entry partner, the tested form may be a part) above
T1 sequence (P04386 1-147 partner limits assumed): as the sequence (P04386 1-147 partner limits assumed) above

Row | Compound | Emax (NURR-1/RXRα) | EC50 (NURR-1/RXRα) | Emax (NURR-1/RXRγ) | EC50 (NURR-1/RXRγ)
1 | O=C(O)C1CN(c2cccc(-c3cc(C(F)(F)F)ccc3OCc3cccc(Cl)c3)c2)C1 [Example 107, 1-[3-[2-[(3-chlorophenyl)methyoxy]-5-(trifluoromethyl)-phenyl]phenyl]azetidine-3-carboxylic acid] | 48% | 19 nM | 48% | 30 nM
2 | Cn1ccc(COc2ccc(C(F)(F)F)cc2-c2cccc(N3CC(C(=O)O)C3)c2)n1 [Example 108, 1-[3-[2-[(1-methylpyrazol-3-yl)methoxy]-5-(trifluoromethyl)phenyl]phenyl]azetidine-3-carboxylic acid] | 53% | 82 nM | 54% | 112 nM
3 | O=C(O)C1CN(c2cccc(-c3cc(C(F)(F)F)ccc3OCc3ccsc3)c2)C1 [Example 111, 1-[3-[2-(3-thienylmethoxy)-5-(trifluoromethyl)phenyl]phenyl]azetidine-3-carboxylic acid] | 94% | 8 nM | 94% | 15 nM
4 | CC1(C)CN(c2cccc(N3CC(C(=O)O)C3)c2)c2ccc(C(F)(F)F)cc2O1 [Example 112, 1-[3-[2,2-dimethyl-7-(trifluoromethyl)-3H-1,4,benzoxazin-4-yl]phenyl]azetidine-3-carboxylic acid] | 125% | 3 nM | 136% | 9 nM
5 | O=C(O)C1CN(c2cccc(N3C(=O)C4(CCC4)Oc4cc(C(F)(F)F)ccc43)c2)C1 [Example 121, 1-[3-[3-oxo-7-(trifluromethyl)spiro[3H1,4-benzoxazine-2,1′-cyclobutane]-4yl]phenyl]azetidine-3-carboxylic acid] | 122% | 12 nM | 133% | 13 nM
6 | O=C(O)C1CN(c2cccc(-n3cc(CC4CCCC4)c4cc(C(F)(F)F)ccc43)c2)C1 [Example 127, 1-[3-[3-(cyclopentylmethyl)-5-(trifluoromethyl)indol-1-yl]phenyl]azetidine-3-carboxylic acid] | 117% | 4 nM | 113% | 3 nM
7 | O=C(O)C1CN(c2cccc(-n3cc(CC4CCOCC4)c4cc(C(F)(F)F)ccc43)c2)C1 [Example 129, 1-[3-[3-(tetrahydropyran-4-ylmethyl)-5-(trifluoromethyl)indol-1-yl]phenyl]azetidine-3-carboxylic acid] | 90% | 7 nM | 88% | 10 nM
8 | CNS(=O)(=O)c1cn(-c2cccc(N3CC(C(=O)O)C3)c2)c2ccc(C(F)(F)F)cc12 [Example 137] | 82% | 995 nM | 85% | 2090 nM
9 | O=C(O)C1CN(c2cccc(N3CC4(CCCC4)c4cc(C(F)(F)F)ccc43)c2)C1 [Example 139, 1-[3-[5′-(trifluoromethyl)spiro[cyclopentane-1,3′-indoline]-1′-yl]phenyl]azetidine-3-carboxylic acid] | 115% | 7 nM | 122% | 10 nM
10 | O=C(O)C1CN(c2cccc(N3CC4(CCOC4)c4cc(C(F)(F)F)ccc43)c2)C1 (stereo not shown) [Example 140, 1-[3-[5-(trifluoromethyl)spiro[indoline-3,3′-tetrahydrofuran]-1-yl]phenyl]azetidine-3-carboxylic acid] | 108% | 40 nM | 97% | 30 nM
11 | O=C(O)C1CN(c2cccc(N3c4ccc(C(F)(F)F)cc4C4CCCCC43)c2)C1 (stereo not shown) [Example 144, 1-[3-[6-(trifluoromethyl)-1,2,3,4,4a,9a-hexahydrocarbazol-9-yl]phenyl]azetidine-3-carboxylic acid] | 97% | 28 nM | 105% | 24 nM
12 | O=C(O)C1CN(c2cccc(-n3c(=O)n(CC4CCCC4)c4cc(C(F)(F)F)ccc43)c2)C1 [Example 149, 1-[3-[3-(cyclopetnylmethyl)-2-oxo-5-(trifluoromethyl)benzimidazol-1-yl]phenyl]azetidine-3-carboxylic acid] | 99% | 8 nM | 97% | 19 nM
13 | Cc1cn(-c2cccc(N3CC(C(=O)NS(=O)(=O)C(F)(F)F)C3)c2)c2ccc(C(F)(F)F)cc12 [Example 151, 1-[3-[3-methyl-5-(trifluoromethyl)indol-1-yl]phenyl]-N-(trifluoromethylsulfonyl)azetidine-3-carboxamide] | 95% | 4 nM | 73% | 7 nM
14 | Cc1cn(-c2cccc(N3CC(C(=O)NC(C)C)C3)c2)c2ccc(C(F)(F)F)cc12 [Example 152, N-isopropyl-1-[3-[3-methyl-5-(trifluoromethyl)indol-1-yl]phenyl]azetidine-3-carboxamide] | 116% | 10 nM | 116% | 10 nM
15 | Cc1cn(-c2cccc(N3CC(C(=O)NCCN(C)C)C3)c2)c2ccc(C(F)(F)F)cc12 [Example 153, N-(2-dimethylaminoethyl)-1-[3-[3-methyl-5-(trifluoromethyl)indol-1-yl]phenyl]azetidine-3-carboxamide] | 87% | 181 nM | 111% | 455 nM
16 | Cc1cn(-c2cccc(N3CC(C(=O)NCCCCO)C3)c2)c2ccc(C(F)(F)F)cc12 [Example 156, N-(4-hydroxybutyl)-1-[3-[3-methyl-5-(trifluorometyl)indol-1-yl]phenyl]azetidine-3-carboxamide] | 105% | 3 nM | 117% | 4 nM
17 | Cc1cn(-c2cccc(N3CC(C(=O)NCC(O)CO)C3)c2)c2ccc(C(F)(F)F)cc12 (stereo not shown) [Example 157, N-(2,3-dihydroxypropyl)-1-[3-[3-methyl-5-(trifluoromethyl)indol-1-yl]phenyl]azetidine-3-carboxamide] | 120% | 3 nM | 114% | 6 nM
18 | Cc1cn(-c2cccc(N3CC(C(=O)NC(CO)CO)C3)c2)c2ccc(C(F)(F)F)cc12 [Example 161, N-[2-hydroxy-1-(hydroxymethyl)ethyl]-1-[3-[3-methyl-5-(trifluoromethyl)indol-1yl]phenyl]azetidine-3-carboxamide] | 113% | 9 nM | 103% | 23 nM
19 | Cc1cn(-c2cccc(N3CC(C(=O)NC4CCN(C)CC4)C3)c2)c2ccc(C(F)(F)F)cc12 [Example 162, N-(1-methyl-4-piperidyl)-1-[3-[3-methyl-5-(trifluromethyl)indol-1-yl]phenyl]azetidine-3-carboxamide] | 100% | 823 nM | 93% | 1380 nM
20 | Cc1cn(-c2cccc(N3CC(C(=O)NC4COC4)C3)c2)c2ccc(C(F)(F)F)cc12 [Example 163, 1-[3-[3-methyl-5-(trifluoromethyl)indol-1-yl]phenyl]-N-(oxetan-3-yl)azetidine-3-carboxamide] | 123% | 7 nM | 125% | 9 nM
21 | Cc1cn(-c2cccc(N3CC(C(=O)NCCCN4CCNCC4)C3)c2)c2ccc(C(F)(F)F)cc12 [Example 164, 1-[3-[3-methyl-5-(trifluoromethyl)indol-1-yl]phenyl]-N-(3-piperazia-1-ylpropyl)azetidine-3-carboxamide] | 85% | 723 nM | 88% | 1650 nM
22 | Cc1cn(-c2cccc(N3CC(C(=O)N(C)C)C3)c2)c2ccc(C(F)(F)F)cc12 [Example 165, N,N-dimethyl-1-[3-[3-methyl-5-(tirfluormethyl)indol-1-yl]phenyl]azetidine-3-carboxamide] | 103% | 15 nM | 108% | 20 nM
23 | Cc1cn(-c2cccc(N3CC(C(=O)NC4CCCC4)C3)c2)c2ccc(C(F)(F)F)cc12 [Example 166, N-cyclopetnyl-1-[3-[3-methyl-5-(trifluoromethyl)indol-1-yl]phenyl]azetidine-3-carboxamide] | 104% | 25 nM | 113% | 41 nM
24 | Cc1cn(-c2cccc(N3CC(C(=O)NCC(C)C)C3)c2)c2ccc(C(F)(F)F)cc12 [Example 167] | 109% | 25 nM | 131% | 41 nM
25 | Cc1cn(-c2cccc(N3CC(C(=O)NCCO)C3)c2)c2ccc(C(F)(F)F)cc12 [Example 168] | 102% | < 1 nM | 106% | < 1 nM
26 | CCCCNC(=O)C1CN(c2cccc(-n3cc(C)c4cc(C(F)(F)F)ccc43)c2)C1 [Example 169, N-butyl-1-[3-[3-methyl-5-(trifluoromethyl)indol-1-yl]phenyl]azetidine-3-carboxamide] | 109% | 13 nM | 149% | 26 nM
27 | Cc1cn(-c2cccc(N3CC(C(=O)NCCN4CCOCC4)C3)c2)c2ccc(C(F)(F)F)cc12 [Example 170, 1-[3-[3-methyl-5-(trifluoromethyl)indol-1-yl]phenyl]-N-(2-morpholinoethyl)azetidine-3-carboxamide] | 100% | 27 nM | 90% | 32 nM
28 | Cc1cn(-c2cccc(N3CC(C(=O)NC(C)(C)C)C3)c2)c2ccc(C(F)(F)F)cc12 [Example 171, N-tert-butyl-1-[3-[3-methyl-5-(tirfluoromethyl)indol-1-yl]phenyl]azetidine-3-carboxamide] | 111% | 73 nM | 114% | 335 nM
